Source: patent publication US9326506B2, “Preparation method, agricultural composition and applications of natural brassinolide analogs” (CHENGDU NEWSUN CROPSCIENCE CO., LTD, priority 2012, dated 2016)

Test system: rice
Test: Low temperature assay on rice seedlings
Format: in vivo
Method in brief: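 Nine-day-old etiolated rice seedlings (grown on water at 30 °C±2 °C, dark) immersed in brassinolide analogues at 1–0.0001 mg/L or pure water, held at 1–5 °C for 24 hr. Plant height, leaf area, root weight read at 3, 6, 9, 12 days; leaf and tiller number at 12 days.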

## CC[C@@H](C(C)C)[C@@H](O)[C@H](O)[C@@H](C)[C@H]1CCC2C3COC(=O)C4C[C@H](O)[C@H](O)C[C@]4(C)C3CC[C@@]21C (stereo partly shown) [BR2]
0.0001 mg/l, 1 °C, 3 days
  Area of leaf: 9.8 cm^2
  Height: 6.8 cm
  Weight of root: 2.8 g
0.0001 mg/l, 1 °C, 6 days
  Area of leaf: 11.2 cm^2
  Height: 6.9 cm
  Weight of root: 3.1 g
0.0001 mg/l, 1 °C, 9 days
  Area of leaf: 12.4 cm^2
  Height: 7 cm
  Weight of root: 3.4 g
0.0001 mg/l, 1 °C, 12 days
  Area of leaf: 13.1 cm^2
  Height: 7.2 cm
  Number of leaf: 3
  Number of tiller: 3
  Weight of root: 3.9 g
0.0001 mg/l, 2 °C, 3 days
  Area of leaf: 10 cm^2
  Height: 6.8 cm
  Weight of root: 2.8 g
0.0001 mg/l, 2 °C, 6 days
  Area of leaf: 11.7 cm^2
  Height: 7 cm
  Weight of root: 3.0 g
0.0001 mg/l, 2 °C, 9 days
  Area of leaf: 12.4 cm^2
  Height: 7.1 cm
  Weight of root: 3.2 g
0.0001 mg/l, 2 °C, 12 days
  Area of leaf: 13 cm^2
  Height: 7.4 cm
  Number of leaf: 3
  Number of tiller: 3
  Weight of root: 3.9 g
0.0001 mg/l, 3 °C, 3 days
  Area of leaf: 10 cm^2
  Height: 6.9 cm
  Weight of root: 2.5 g
0.0001 mg/l, 3 °C, 6 days
  Area of leaf: 11.8 cm^2
  Height: 7.2 cm
  Weight of root: 2.6 g
0.0001 mg/l, 3 °C, 9 days
  Area of leaf: 12.3 cm^2
  Height: 7.4 cm
  Weight of root: 2.9 g
0.0001 mg/l, 3 °C, 12 days
  Area of leaf: 13.2 cm^2
  Height: 7.5 cm
  Number of leaf: 3
  Number of tiller: 2
  Weight of root: 2.9 g
0.0001 mg/l, 4 °C, 3 days
  Area of leaf: 10 cm^2
  Height: 6.9 cm
  Weight of root: 2.5 g
0.0001 mg/l, 4 °C, 6 days
  Area of leaf: 11.7 cm^2
  Height: 7.3 cm
  Weight of root: 2.6 g
0.0001 mg/l, 4 °C, 9 days
  Area of leaf: 13 cm^2
  Height: 7.5 cm
  Weight of root: 2.9 g
0.0001 mg/l, 4 °C, 12 days
  Area of leaf: 13.4 cm^2
  Height: 7.6 cm
  Number of leaf: 3
  Number of tiller: 2
  Weight of root: 2.9 g
0.0001 mg/l, 5 °C, 3 days
  Area of leaf: 10.2 cm^2
  Height: 7.0 cm
  Weight of root: 2.5 g
0.0001 mg/l, 5 °C, 6 days
  Area of leaf: 12 cm^2
  Height: 7.4 cm
  Weight of root: 2.7 g
0.0001 mg/l, 5 °C, 9 days
  Area of leaf: 13.6 cm^2
  Height: 7.5 cm
  Weight of root: 2.9 g
0.0001 mg/l, 5 °C, 12 days
  Area of leaf: 14 cm^2
  Height: 7.7 cm
  Number of leaf: 3
  Number of tiller: 2
  Weight of root: 3.0 g
0.001 mg/l, 1 °C, 3 days
  Area of leaf: 10.1 cm^2
  Height: 6.9 cm
  Weight of root: 2.8 g
0.001 mg/l, 1 °C, 6 days
  Area of leaf: 11.3 cm^2
  Height: 7.1 cm
  Weight of root: 3.1 g
0.001 mg/l, 1 °C, 9 days
  Area of leaf: 12.6 cm^2
  Height: 7.1 cm
  Weight of root: 3.4 g
0.001 mg/l, 1 °C, 12 days
  Area of leaf: 13 cm^2
  Height: 7.3 cm
  Number of leaf: 3
  Number of tiller: 3
  Weight of root: 3.9 g
0.001 mg/l, 2 °C, 3 days
  Area of leaf: 9.8 cm^2
  Height: 6.9 cm
  Weight of root: 2.8 g
0.001 mg/l, 2 °C, 6 days
  Area of leaf: 11.6 cm^2
  Height: 7.1 cm
  Weight of root: 3.0 g
0.001 mg/l, 2 °C, 9 days
  Area of leaf: 12.1 cm^2
  Height: 7.1 cm
  Weight of root: 3.2 g
0.001 mg/l, 2 °C, 12 days
  Area of leaf: 13.1 cm^2
  Height: 7.3 cm
  Number of leaf: 3
  Number of tiller: 3
  Weight of root: 3.9 g
0.001 mg/l, 3 °C, 3 days
  Area of leaf: 10 cm^2
  Height: 7 cm
  Weight of root: 2.5 g
0.001 mg/l, 3 °C, 6 days
  Area of leaf: 12 cm^2
  Height: 7.1 cm
  Weight of root: 2.6 g
0.001 mg/l, 3 °C, 9 days
  Area of leaf: 12.4 cm^2
  Height: 7.3 cm
  Weight of root: 2.9 g
0.001 mg/l, 3 °C, 12 days
  Area of leaf: 13 cm^2
  Height: 7.4 cm
  Number of leaf: 3
  Number of tiller: 2
  Weight of root: 2.9 g
0.001 mg/l, 4 °C, 3 days
  Area of leaf: 10 cm^2
  Height: 7.1 cm
  Weight of root: 2.5 g
0.001 mg/l, 4 °C, 6 days
  Area of leaf: 12.1 cm^2
  Height: 7.3 cm
  Weight of root: 2.6 g
0.001 mg/l, 4 °C, 9 days
  Area of leaf: 13 cm^2
  Height: 7.5 cm
  Weight of root: 2.9 g
0.001 mg/l, 4 °C, 12 days
  Area of leaf: 13.5 cm^2
  Height: 7.5 cm
  Number of leaf: 3
  Number of tiller: 2
  Weight of root: 2.9 g
0.001 mg/l, 5 °C, 3 days
  Area of leaf: 10.2 cm^2
  Height: 7.2 cm
  Weight of root: 2.8 g
0.001 mg/l, 5 °C, 6 days
  Area of leaf: 14 cm^2
  Height: 7.5 cm
  Weight of root: 2.9 g
0.001 mg/l, 5 °C, 9 days
  Area of leaf: 15.4 cm^2
  Height: 7.8 cm
  Weight of root: 3.0 g
0.001 mg/l, 5 °C, 12 days
  Area of leaf: 16 cm^2
  Height: 8 cm
  Number of leaf: 3
  Number of tiller: 3
  Weight of root: 3.7 g
0.01 mg/l, 1 °C, 3 days
  Area of leaf: 10.1 cm^2
  Height: 7.0 cm
  Weight of root: 2.8 g
0.01 mg/l, 1 °C, 6 days
  Area of leaf: 11.6 cm^2
  Height: 7.2 cm
  Weight of root: 3.0 g
0.01 mg/l, 1 °C, 9 days
  Area of leaf: 12.4 cm^2
  Height: 7.4 cm
  Weight of root: 3.4 g
0.01 mg/l, 1 °C, 12 days
  Area of leaf: 13.6 cm^2
  Height: 7.5 cm
  Number of leaf: 3
  Number of tiller: 3
  Weight of root: 3.9 g
0.01 mg/l, 2 °C, 3 days
  Area of leaf: 10.1 cm^2
  Height: 7.1 cm
  Weight of root: 2.8 g
0.01 mg/l, 2 °C, 6 days
  Area of leaf: 11.1 cm^2
  Height: 7.2 cm
  Weight of root: 3.1 g
0.01 mg/l, 2 °C, 9 days
  Area of leaf: 12.5 cm^2
  Height: 7.5 cm
  Weight of root: 3.1 g
0.01 mg/l, 2 °C, 12 days
  Area of leaf: 13.4 cm^2
  Height: 7.5 cm
  Number of leaf: 3
  Number of tiller: 3
  Weight of root: 3.2 g
0.01 mg/l, 3 °C, 3 days
  Area of leaf: 10.2 cm^2
  Height: 7.1 cm
  Weight of root: 2.5 g
0.01 mg/l, 3 °C, 6 days
  Area of leaf: 12 cm^2
  Height: 7.2 cm
  Weight of root: 2.6 g
0.01 mg/l, 3 °C, 9 days
  Area of leaf: 12.6 cm^2
